Data on 16 compounds can be found in PMC8032668, “Evaluation of carboxyfluorescein-labeled 7-methylguanine nucleotides as probes for studying cap-binding proteins by fluorescence anisotropy” (Scientific Reports, 2021).

One assay deals with T1, eIF4E (Mus musculus, UniProt P63073).
T1 construct: Murine eIF4E (residues 28–217) was expressed in E. coli; made in house; host or cells: E. coli
The assay can be described thus: FA competition (probe-displacement) assay for eIF4E. The assay is classed as binding, Murine. The settings on record: for EC50: HEPES pH 7.2. The protocol: Inclusion bodies containing eIF4E were solubilized in 50 mM HEPES/KOH (pH 7.2) buffer containing 10% glycerol, 6 M guanidine hydrochloride and 2 mM DTT. Protein was then refolded during a two-step dialysis against buffer with decreasing concentration of guanidine hydrochloride in the presence of 100 mM KCl. Subsequently eIF4E was loaded on ion exchange HiTrap SP HP column (GE Healthcare), eluted with linear gradient of 0.1–1 M KCl and finally desalted and polished during a gel filtration purification step on HiLoad 16/600 Superdex 75 pg (GE Healthcare) using 50 mM HEPES pH 7.2, 100 mM KCl, 0.5 mM EDTA, 2 mM DTT buffer. eIF4E was aliquoted and stored in the presence of 10% glycerol at −80 °C. Before each experiment the protein was centrifuged on Ultrafree-MC Centrifugal PVDF filter with […] pore size (Millipore), at 4 °C and 3000×g for 2 min to remove any possible aggregates.
(§1) Experiments were carried out at 25 °C in 96-well non-binding microplates with sample volume of 200 µl per well. Two different buffers were used depending on protein used in the assay:
eIF4E assay buffer—50 mM HEPES (pH 7.2), 100 mM KCl, 0.5 mM EDTA, 1 mM DTT.
(§2) For competitive binding assay, a mixture containing the probe and the protein was incubated with the tested ligand.
(§3) In competitive measurements, a constant concentration of the protein and fluorescent probe and increasing concentration of the test ligand were used. At least 12 point dilutions of the tested compound were used. The experiments were carried out in 96-well plates. Each sample contained a mixture consisting of the probe, tested ligand and buffer (same as for the direct binding assay). The samples were incubated for 10 min at 25 °C with simultaneous shaking, then the protein was added to each well, incubated for additional 3 min, followed by the measurement of fluorescence anisotropy. FA signals were recorded for 20 min with 2 min intervals.

Assay [1] deals with DcpS. The arrangement: method as in PMID 27031609. The settings on record: DcpS inhibition, FR assay; cited from earlier work.
The target in assay [2] is T2, DcpS (Homo sapiens, UniProt Q96C86).
T2 construct: His tag; made in house; host or cells: E. coli BL21(DE3) RIL
T2 sequence (Q96C86 1-337): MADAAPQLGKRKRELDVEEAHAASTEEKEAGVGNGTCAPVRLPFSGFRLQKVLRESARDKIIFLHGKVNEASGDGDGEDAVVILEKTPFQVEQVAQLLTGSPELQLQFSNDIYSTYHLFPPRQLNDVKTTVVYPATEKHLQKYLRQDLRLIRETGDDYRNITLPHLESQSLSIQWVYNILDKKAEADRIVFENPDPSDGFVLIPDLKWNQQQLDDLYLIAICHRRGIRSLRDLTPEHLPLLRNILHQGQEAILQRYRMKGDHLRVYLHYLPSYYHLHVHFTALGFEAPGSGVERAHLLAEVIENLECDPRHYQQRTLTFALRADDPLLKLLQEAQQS
Put plainly: FA competition assay for DcpS. The assay is classed as binding. The protocol:
Expression of recombinant His-tagged human DcpS was performed in BL21(DE3) RIL strain and induced overnight at 18 °C using 0.5 mM IPTG as described previously. Cells were harvested, resuspended in buffer (50 mM Tris pH 7.6, 500 mM NaCl, 20 mM imidazole) with lysozyme (0.1 mg/ml) and protease inhibitors (1 mM PMSF, 1 µM pepstatin A, 0.3 µM aprotinin) and then lysed using sonication. Lysate was clarified by centrifugation at 35 000 × g for 40 min at 4 °C. […] The enzyme hDcpS was purified to homogeneity on HiLoad 16/600 Superdex 200 pg (GE Healthcare) gel filtration column using 50 mM Tris·HCl pH 7.6, 200 mM NaCl, 2 mM DTT buffer. Protein was aliquoted and stored in the presence of 10% glycerol at -80 °C.
as §1
DcpS assay buffer—50 mM Tris–HCl (pH 7.6), 200 mM KCl, 0.5 mM EDTA, 1 mM DTT.
as §2, §3

The target in assay [3] is T2, DcpS. The assay can be described thus: FA screening of in-house library, 2i:DcpS system. The class given is binding. The settings on record: 1 nM 2i, 25 nM DcpS, 1.5 µM inhibitor. The protocol:
The Z’ factor was determined under conditions optimized for the competition assay. The Z’ value exceeded 0.8 for incubation times up to 1 h, making the assay suitable for screening experiments (Table 5). A screening experiment was then performed using the same compound library as that used for eIF4E screening. The results highlighted the impact of the triphosphate bridge modification on the affinity for the protein. […] The FA method also enabled the identification of unstable compounds, e.g., hydrozylable ligands for which determination of affinity is problematic (as observed by FA signal changes during the experiment; Fig. 7).
To evaluate the quality of the assay, the Z’ factor was determined for several protein-probe combinations. The assay was performed on 96-well microplates, where half of the samples were negative controls and the other half were positive controls.
For the screening experiments a small in-house library containing 21 ligands was used. Experiments were conducted in the same manner as Z’ factor determination, with exception that the ligand concentration was modified (eIF4E screening conditions: 1 nM 1e, 100 nM eIF4E, 750 nM ligand, DcpS screening conditions: 1 nM 2i, 25 nM DcpS, 1.5 µM ligand). For eIF4E screening experiment, the 1e:eIF4E system was used, for DcpS screening 2i:DcpS system was used.

The mark [4] stands for this setting: Probe 1a: 10 nM probe 1a and 100 nM eIF4E.
[5] abbreviates: Probe 1b: 1 nM probe 1b and 15 nM eIF4E.
The mark [6] stands for this setting: Probe 1e: footnote c, 1 nM probe 1c and 100 nM eIF4E.
[7] abbreviates: 1f:DcpS system, 1f and 100 nM DcpS.
Setting [8] is: 2g:DcpS system, 2 nM 2g and 25 nM DcpS.
Setting [9] is: 2i:DcpS system, 1 nM 2i and 25 nM DcpS.
Where [10] appears, read: 2h:DcpS system, 2 nM 2h and 25 nM DcpS.

T1 sequence (P63073 28-217): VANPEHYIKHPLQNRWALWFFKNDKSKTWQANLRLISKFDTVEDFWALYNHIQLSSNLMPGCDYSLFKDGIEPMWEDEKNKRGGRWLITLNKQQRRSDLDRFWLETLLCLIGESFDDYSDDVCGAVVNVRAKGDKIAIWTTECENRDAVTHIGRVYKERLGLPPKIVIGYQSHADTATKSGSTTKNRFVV

As to `C[n+]1cn([C@@H]2O[C@H](COP(=O)([O-])OP(O)(=S)OP(=O)(O)OC[C@H]3O[C@@H](n4cnc5c(=O)[nH]c(N)nc54)[C@H](O)[C@@H]3O)[C@@H](O)[C@H]2O)c2nc(N)[nH]c(=O)c21` (single isomer, unassigned) [m^7GppSpG D1], the figures for the Hill slope at eIF4E (setting [4]), on eIF4E (setting [5]) and at eIF4E (setting [6]) were 1.37 ± 0.02, 1.16 ± 0.18 and 1.10 ± 0.06, respectively. Moreover, the EC50 – broadly, the concentration at which the effect is half-maximal – is 184 ± 13 nM at eIF4E (setting [4]), 210 ± 32 nM at eIF4E (setting [5]) and 226 ± 43 nM on eIF4E (setting [6]).
In the case of `C[n+]1cn([C@@H]2O[C@H](COP(=O)([O-])OP(O)(=S)OP(=O)(O)OC[C@H]3O[C@@H](n4cnc5c(=O)[nH]c(N)nc54)[C@H](O)[C@@H]3O)[C@@H](O)[C@H]2O)c2nc(N)[nH]c(=O)c21` (single isomer, unassigned) [m^7GppSpG D2], the values for the Hill slope on eIF4E (setting [4]), on eIF4E (setting [5]) and at eIF4E (setting [6]) were 1.19 ± 0.06, 1.15 ± 0.06 and 1.04 ± 0.17, respectively. The EC50 was 382 ± 21 nM at eIF4E (setting [4]), 511 ± 109 nM at eIF4E (setting [5]) and 477 ± 89 nM on eIF4E (setting [6]).
Take `CO[C@@H]1[C@H](O)[C@@H](COP([O-])(=S)OP(=O)(O)OP(=O)(O)OP(=O)(O)OC[C@H]2O[C@@H](n3cnc4c(=O)[nH]c(N)nc43)[C@H](O)[C@@H]2O)O[C@H]1n1c[n+](C)c2c(=O)[nH]c(N)nc21` (single isomer, unassigned) [m^7′-OGpSpppG D1, m^7,2′-OGpSpppG D1]: the Hill slope (as a rule, the slope factor of the fitted curve) came out at 2.07 ± 0.02 on eIF4E (setting [4]), 1.64 ± 0.10 at eIF4E (setting [5]) and 1.46 ± 0.60 at eIF4E (setting [6]). The EC50 at eIF4E (setting [4]) was determined as 68 ± 3 nM; on eIF4E (setting [5]), 22.2 ± 3.7 nM; at eIF4E (setting [6]), 51.4 ± 6.1 nM.
For the compound `CO[C@@H]1[C@H](O)[C@@H](COP([O-])(=S)OP(=O)(O)OP(=O)(O)OP(=O)(O)OC[C@H]2O[C@@H](n3cnc4c(=O)[nH]c(N)nc43)[C@H](O)[C@@H]2O)O[C@H]1n1c[n+](C)c2c(=O)[nH]c(N)nc21` (single isomer, unassigned) [m^7′-OGpSpppG D2, m^7,2′-OGpSpppG D2], the Hill slope turned out to be 1.94 ± 0.26 at eIF4E (setting [4]), 1.37 ± 0.08 at eIF4E (setting [5]) and 1.40 ± 0.06 at eIF4E (setting [6]). In addition, the EC50 turned out to be 74 ± 10 nM on eIF4E (setting [4]), 34.9 ± 7 nM at eIF4E (setting [5]) and 64.3 ± 3.4 nM on eIF4E (setting [6]).
Take `Nc1nc(N)c2c(OCC3CCN(Cc4c(Cl)cccc4Cl)CC3)cccc2n1` [RG3039]: the half-maximal inhibitory concentration (IC50) – broadly, the concentration at which inhibition is half-maximal – in the assay on DcpS [1] is […].
In the case of `Cn1c[n+]([C@@H]2O[C@H](COP(=O)(O)O)[C@@H](O)[C@H]2O)c2nc(N)[nH]c(=O)c21` [m^7GMP], the EC50 at DcpS [2] (setting [7]) is 104 ± 11 nM; at DcpS [2] (setting [8]), 112 ± 11 nM; on DcpS [2] (setting [9]), 255 ± 14 nM; at DcpS [2] (setting [10]), 357 ± 44 nM. Moreover, the Hill slope on DcpS [2] (setting [7]) is 1.19 ± 0.15; at DcpS [2] (setting [8]), 1.04 ± 0.02; on DcpS [2] (setting [9]) it was 1.00 ± 0.02; at DcpS [2] (setting [10]), 0.93 ± 0.07. Moreover, in the assay on DcpS [1], the IC50 was 97000 ± 21000 nM.
As for `C[n+]1cn([C@@H]2O[C@H](COP(=O)(O)CP(=O)(O)OP(=O)(O)OC[C@H]3O[C@@H](n4cnc5c(=O)[nH]c(N)nc54)[C@H](O)[C@@H]3O)[C@@H](O)[C@H]2O)c2nc(N)[nH]c(=O)c21` [m^7GpCH2ppG], the “inhibitory potency in DcpS screening” value on DcpS [3] was “strong DcpS inhibitors”.
On the same count and under the same terms, the entry for `C[n+]1cn([C@@H]2O[C@H](COP(=O)(O)CP(=O)(O)OP(=O)([O-])OP(=O)(O)OC[C@H]3O[C@@H](n4cnc5c(=O)[nH]c(N)nc54)[C@H](O)[C@@H]3O)[C@@H](O)[C@H]2O)c2nc(N)nc(O)c21` [m^7GpCH2pppG] is “strong DcpS inhibitors”.
In the case of `C[n+]1cn([C@@H]2O[C@H](COP(=O)([S-])OP(=O)(O)OP(=O)(O)OC[C@H]3O[C@@H](n4cnc5c(=O)[nH]c(N)nc54)[C@H](O)[C@@H]3O)[C@@H](O)[C@H]2O)c2nc(N)nc(O)c21` (stereo partly shown) [m^7GpSppG D1], the “stability towards DcpS (FA signal changes during the screening experiment)” value on DcpS [3] is reported as “slowly hydrolyzed DcpS substrates”.
As for `[BH3-]P(=O)(OP(=O)(O)OCC1OC(n2cnc3c(=O)[nH]c(N)nc32)C(O)C1O)OP(=O)(O)OCC1OC(n2c[n+](C)c3c(=O)[nH]c(N)nc32)C(O)C1O` (stereo not shown) [m^7GppBH3pG D1], the “stability towards DcpS (FA signal changes during the screening experiment)” value on DcpS [3] is “slowly hydrolyzed DcpS substrates”.
On the same count and under the same terms, the entry for `[BH3-]P(=O)(OP(=O)(O)OCC1OC(n2cnc3c(=O)[nH]c(N)nc32)C(O)C1O)OP(=O)(O)OCC1OC(n2c[n+](C)c3c(=O)[nH]c(N)nc32)C(O)C1O` (stereo not shown) [m^7GppBH3pG D2] is “slowly hydrolyzed DcpS substrates”.
As for `Cn1c[n+]([C@@H]2O[C@H](COP(=O)(O)OP(=O)([O-])OP(=O)(O)OC[C@H]3O[C@@H](n4cnc5c(=O)[nH]c(N)nc54)[C@H](O)[C@@H]3O)[C@@H](O)[C@H]2O)c2nc(N)[nH]c(=O)c21` [m^7GpppG], the Hill slope on eIF4E (setting [4]) came to 1.12 ± 0.03; at eIF4E (setting [5]), 1.12 ± 0.06; on eIF4E (setting [6]), 1.08 ± 0.11. Further, the EC50 was 413 ± 13 nM at eIF4E (setting [4]), 599 ± 64 nM on eIF4E (setting [5]) and 551 ± 75 nM at eIF4E (setting [6]).
Take m^7GSppSpG D1: the “inhibitory potency in DcpS screening” value on DcpS [3] is “the most potent inhibitors”.
Consider m^7GSppSpG D2, for which the “inhibitory potency in DcpS screening” value on DcpS [3] is listed as “the most potent inhibitors”.
Turning to m^7GSppSpSG D1, at DcpS [3], the “inhibitory potency in DcpS screening” value is recorded as “the most potent inhibitors”.
Consider m^7GSppSpSG D2, for which the “inhibitory potency in DcpS screening” value at DcpS [3] is reported as “the most potent inhibitors”.
